Assay results: US20240308956A1, “LIPOPHILIC LITHIUM SALTS FOR DIRECT DISSOLUTION IN ORGANIC SCINTILLATORS” (Lawrence Livermore National Security, LLC, priority 2022, published 2024)
One block for each molecule: values may come before it.

Columns and labels:
[1] = Long-term stability of loaded solutions to precipitation; type: physicochemical
Description: (§1) Majority of tested compositions were prepared with ˜0.1 wt. % of atomic ^6Li, although a possibility of higher concentrations was also tested for some efficient formulations. For liquid preparations, solid constituents weighed in vials or glass jars at ambient condition were vacuumed and transferred into the nitrogen-filled glove box, where liquid components (EJ-309, DIPN, Tx-100, and IBA) were added for dissolution. Solutions were left to stirred overnight to reach equilibrium, then transferred into the quartz cuvettes, sealed, and removed from the glovebox. Unless indicated otherwise, measurements were made in small cylindrical cuvettes of Ø2 cm×1 cm in dimensions. For approximate evaluation of the attenuation, solutions of interest were also prepared and measured at larger scale in 2″×2″ (Ø5.1 cm×5.1 cm) quartz cuvettes.

[2] = Solubility of lipophilic salts in liquids; type: physicochemical
Description: as §1

[3] = without surfactant; cited from earlier work

SMILES: CCCCC(CC)COC(=O)CC(C(=O)OCC(CC)CCCC)S(=O)(=O)[O-].[Li+] (centres unmarked) [^6LiDOSS, lithium 1,4-bis(2-ethylhexoxy)-1,4-dioxobutane-2-sulfonate]
^6Li concentration at which solutions are stable to solid precipitation ([1]; solution containing 0.5 wt. % of E404): ≤ 0.3 wt. % ^6Li | stability to long-term precipitation ([1]; solutions containing 0.2 wt. % of atomic lithium): stable to long-term precipitation | solubility of the compound in DIPN ([2]; DIPN, studies of long-term stability): about 20 wt. % | solubility in organic fluids ([2]; organic fluids, of total scintillator): about 50 wt. % | solubility of the compound ([2]; without any additional dyes): up to 40 wt. %

stability of solutions ([1]; single dye solutions in 90:10 DIPN:IBA): highly stable | precipitation or LO degradation on storage ([1]; single dye solutions in 95:5 DIPN:IBA, sealed samples, ~1 year of observations): no precipitation or LO degradation
SMILES: CC(C)CC(=O)[O-].[6Li+] [^6LiIVA, reference compound]

SMILES: O=C([O-])c1cccc(-c2ccccc2)c1O.[6Li+] [^6LiPSA]
solubility in aromatics [3]: slightly soluble
